Results: EPA's ToxValDB 9.5

System: Rattus norvegicus
Details: short-term, duration: 28 days, oral, gavage, Sprague-Dawley

O=S(=O)(O)C(F)(F)C(F)(F)C(F)(F)C(F)(F)F [Perfluorobutanesulfonic acid]
500 mg/kg-day: LOEL (F, Clinical chemistry_Alkaline phosphatase) | LOEL (F, Clinical chemistry_Aspartate aminotransferase) | LOEL (F, Clinical chemistry_Cholesterol) | LOEL (F, Clinical chemistry_Direct bilirubin) | LOEL (F, Clinical chemistry_Total bilirubin) | LOEL (F, Nonneoplastic effects_Liver - Hepatocyte, cytoplasmic alteration) | LOEL (F, Nonneoplastic effects_Liver - Hepatocyte, hypertrophy) | LOEL (F, Organ weights_Heart - Absolute) | LOEL (F, Organ weights_Spleen - Absolute) | LOEL (F, Organ weights_Thymus - Absolute) | LOEL (M, Clinical chemistry_Alanine aminotransferase) | LOEL (M, Clinical chemistry_Aspartate aminotransferase) | LOEL (M, Clinical chemistry_Direct bilirubin) | LOEL (M, Clinical chemistry_Sorbitol dehydrogenase) | LOEL (M, Clinical chemistry_Total bile acids) | LOEL (M, Clinical chemistry_Triglycerides) | LOEL (M, Nonneoplastic effects_Liver - Hepatocyte, cytoplasmic alteration) | LOEL (M, Organ weights_Heart - Absolute) | LOEL (M, Organ weights_Heart - Relative) | LOEL (M, Organ weights_R. kidney - Absolute) | LOEL (M, Organ weights_R. kidney - Relative) | LOEL (M, Organ weights_Thymus - Absolute) | LOEL (M, Organ weights_Thymus - Relative)
250 mg/kg-day: LOEL (F, Clinical chemistry_Alanine aminotransferase) | LOEL (F, Clinical chemistry_Total bile acids) | LOEL (F, Gene expression_Acox1) | LOEL (F, Nonneoplastic effects_Nose - Olfactory epithelium, hyperplasia) | LOEL (F, Organ weights_Liver - Absolute) | LOEL (F, Reproductive toxicity_Altered estrous cyclicity) | LOEL (F, Survival rates) | LOEL (M, Clinical chemistry_Alkaline phosphatase) | LOEL (M, Gene expression_Acyl-CoA oxidase) | LOEL (M, Nonneoplastic effects_Nose - Olfactory epithelium, degeneration) | LOEL (M, Nonneoplastic effects_Nose - Olfactory epithelium, hyperplasia)
62.6 mg/kg-day: LOEL (F, Clinical chemistry_Free thyroxine) | LOEL (F, Clinical chemistry_Total thyroxine) | LOEL (F, Clinical chemistry_Total triiodothyronine) | LOEL (F, Gene expression_Cyp2b1) | LOEL (F, Gene expression_Cyp2b2) | LOEL (F, Gene expression_Cyp4a1) | LOEL (F, Organ weights_R. kidney - Relative) | LOEL (M, Clinical chemistry_Albumin/globulin ratio) | LOEL (M, Clinical chemistry_Cholesterol) | LOEL (M, Clinical chemistry_Free thyroxine) | LOEL (M, Clinical chemistry_Globulin) | LOEL (M, Clinical chemistry_Total protein) | LOEL (M, Clinical chemistry_Total thyroxine) | LOEL (M, Clinical chemistry_Total triiodothyronine) | LOEL (M, Gene expression_Cyp2b1) | LOEL (M, Gene expression_Cyp2b2) | LOEL (M, Gene expression_Cyp4a1) | LOEL (M, Organ weights_Liver - Relative)
125 mg/kg-day: LOEL (F, Hematology_Reticulocytes) | LOEL (F, Nonneoplastic effects_Nose - Olfactory epithelium, degeneration) | LOEL (F, Organ weights_Liver - Relative) | LOEL (M, Gene expression_Acox1) | LOEL (M, Hematology_Erythrocytes) | LOEL (M, Hematology_Hematocrit) | LOEL (M, Hematology_Hemoglobin) | LOEL (M, Hematology_Reticulocytes) | LOEL (M, Nonneoplastic effects_Liver - Hepatocyte, hypertrophy) | LOEL (M, Organ weights_Liver - Absolute)
1000 mg/kg-day: NOEL (F, Clinical chemistry_Albumin) | NOEL (F, Clinical chemistry_Albumin/globulin ratio) | NOEL (F, Clinical chemistry_Globulin) | NOEL (F, Clinical chemistry_Sorbitol dehydrogenase) | NOEL (F, Clinical chemistry_Testosterone) | NOEL (F, Clinical chemistry_Thyroid stimulating hormone) | NOEL (F, Clinical chemistry_Total protein) | NOEL (F, Clinical chemistry_Triglycerides) | NOEL (F, Hematology_Erythrocytes) | NOEL (F, Hematology_Hematocrit) | NOEL (F, Hematology_Hemoglobin) | NOEL (F, Hematology_Leukocytes) | NOEL (F, Hematology_S. neutrophils) | LOEL (F, Nonneoplastic effects_Bone marrow - Hypocellularity) | LOEL (F, Nonneoplastic effects_Kidney - Papilla, necrosis) | NOEL (F, Nonneoplastic effects_Liver - Hepatocyte, vacuolization cytoplasmic) | LOEL (F, Nonneoplastic effects_Liver - Necrosis) | LOEL (F, Nonneoplastic effects_Nose - Olfactory epithelium, inflammation, suppurative) | LOEL (F, Nonneoplastic effects_Nose - Olfactory epithelium, necrosis) | NOEL (F, Nonneoplastic effects_Spleen - Extramedullary hematopoiesis, decreased) | NOEL (F, Nonneoplastic effects_Stomach, forestomach - Epithelium, hyperplasia) | LOEL (F, Nonneoplastic effects_Thymus - Atrophy) | NOEL (F, Organ weights_Heart - Relative) | NOEL (F, Organ weights_Lung - Absolute) | NOEL (F, Organ weights_Lung - Relative) | NOEL (F, Organ weights_R. adrenal gland - Absolute) | NOEL (F, Organ weights_R. adrenal gland - Relative) | NOEL (F, Organ weights_R. kidney - Absolute) | NOEL (F, Organ weights_Spleen - Relative) | NOEL (F, Organ weights_Thymus - Relative) | LOEL (F, body weight) | NOEL (M, Clinical chemistry_Albumin) | NOEL (M, Clinical chemistry_Testosterone) | NOEL (M, Clinical chemistry_Thyroid stimulating hormone) | NOEL (M, Clinical chemistry_Total bilirubin) | NOEL (M, Hematology_Leukocytes) | NOEL (M, Hematology_S. neutrophils) | LOEL (M, Nonneoplastic effects_Bone marrow - Hypocellularity) | LOEL (M, Nonneoplastic effects_Kidney - Papilla, necrosis) | NOEL (M, Nonneoplastic effects_Liver - Hepatocyte, vacuolization cytoplasmic) | LOEL (M, Nonneoplastic effects_Liver - Necrosis) | LOEL (M, Nonneoplastic effects_Nose - Olfactory epithelium, inflammation, suppurative) | LOEL (M, Nonneoplastic effects_Nose - Olfactory epithelium, necrosis) | NOEL (M, Nonneoplastic effects_Spleen - Extramedullary hematopoiesis, decreased) | LOEL (M, Nonneoplastic effects_Stomach, forestomach - Epithelium, hyperplasia) | LOEL (M, Nonneoplastic effects_Thymus - Atrophy) | NOEL (M, Organ weights_Lung - Absolute) | NOEL (M, Organ weights_Lung - Relative) | NOEL (M, Organ weights_R. adrenal gland - Absolute) | NOEL (M, Organ weights_R. adrenal gland - Relative) | NOEL (M, Organ weights_Spleen - Absolute) | NOEL (M, Organ weights_Spleen - Relative) | NOEL (M, Reproductive toxicity_Altered sperm parameters) | LOEL (M, Survival rates) | LOEL (M, body weight)
